Source: ChEMBL document CHEMBL1201862, “PubChem BioAssay data set” (2004)
The source made the active and inactive calls.

Assays:
[1] = target: DNA dC->dU-editing enzyme APOBEC-3G (Homo sapiens, UniProt Q9HC16); assay type: functional;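 further: Dose-response counterscreen measuring inhibition of APOBEC3G DNA deaminase activity, run while confirming APOBEC3A inhibitors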
[2] = target: T1, Dual specificity protein phosphatase 6 (Rattus norvegicus, UniProt Q64346); test: MKP-3 phosphatase inhibitors, primary screen, biochemical, rat enzyme, in vitro (AID 425)
T1 sequence (Q64346 whole entry): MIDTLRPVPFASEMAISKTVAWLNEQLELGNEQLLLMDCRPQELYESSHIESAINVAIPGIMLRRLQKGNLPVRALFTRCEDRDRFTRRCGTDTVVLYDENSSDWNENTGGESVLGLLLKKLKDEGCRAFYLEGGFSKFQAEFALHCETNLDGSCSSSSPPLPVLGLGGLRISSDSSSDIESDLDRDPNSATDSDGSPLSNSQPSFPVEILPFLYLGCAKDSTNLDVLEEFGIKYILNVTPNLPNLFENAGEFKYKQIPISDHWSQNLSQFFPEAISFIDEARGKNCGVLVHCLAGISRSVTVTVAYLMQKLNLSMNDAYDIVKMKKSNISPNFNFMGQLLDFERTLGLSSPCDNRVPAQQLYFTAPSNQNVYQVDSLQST

Bcl-2-like protein 10 = target: T2, Bcl-2-like protein 10 (Homo sapiens, UniProt Q9HD36); test: displacers of TR3 peptide from Bcl-B, primary screen, selectivity assay for Bfl-1 inhibitor project, biochemical, fluorescence polarization, FITC-TR3 peptide (AID 748);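 further: fluorescence polarization from a fluorescein-labelled TR3 peptide binding purified Bcl-B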
T2 sequence (Q9HD36 whole entry): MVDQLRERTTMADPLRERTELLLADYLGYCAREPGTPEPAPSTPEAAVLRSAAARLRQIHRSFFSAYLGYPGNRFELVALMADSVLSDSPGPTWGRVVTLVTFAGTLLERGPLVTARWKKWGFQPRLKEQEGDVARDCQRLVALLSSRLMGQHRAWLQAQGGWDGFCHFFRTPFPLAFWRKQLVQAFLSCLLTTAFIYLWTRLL

Bcl-2-related protein A1 = target: T3, Bcl-2-related protein A1 (Mus musculus, UniProt Q07440); test: Bfl-1 inhibitors, primary screen, biochemical, fluorescence polarization, FITC-Bid, mouse (AID 432)
T3 sequence (Q07440 whole entry): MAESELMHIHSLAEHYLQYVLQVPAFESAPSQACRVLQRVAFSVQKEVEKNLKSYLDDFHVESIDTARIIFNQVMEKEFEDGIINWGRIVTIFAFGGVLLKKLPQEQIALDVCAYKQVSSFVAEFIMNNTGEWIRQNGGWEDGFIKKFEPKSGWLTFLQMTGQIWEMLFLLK

[3] = target: DNA dC->dU-editing enzyme APOBEC-3A (Homo sapiens, UniProt P31941); test: Dose Response confirmation of small molecule APOBEC3A DNA Deaminase Inhibitors via a fluorescence-based single-stranded DNA deaminase assay. [Related pubchem assays (depositor defined):AID493011, AID493024]; assay type: functional
[4] = target: T4, Tyrosine-protein phosphatase non-receptor type 7 (Homo sapiens, UniProt P35236); test: inhibitors of human HePTP phosphatase, […], biochemical, absorbance, leukemia target (AID 521); assay type: functional
T4 sequence (P35236 whole entry): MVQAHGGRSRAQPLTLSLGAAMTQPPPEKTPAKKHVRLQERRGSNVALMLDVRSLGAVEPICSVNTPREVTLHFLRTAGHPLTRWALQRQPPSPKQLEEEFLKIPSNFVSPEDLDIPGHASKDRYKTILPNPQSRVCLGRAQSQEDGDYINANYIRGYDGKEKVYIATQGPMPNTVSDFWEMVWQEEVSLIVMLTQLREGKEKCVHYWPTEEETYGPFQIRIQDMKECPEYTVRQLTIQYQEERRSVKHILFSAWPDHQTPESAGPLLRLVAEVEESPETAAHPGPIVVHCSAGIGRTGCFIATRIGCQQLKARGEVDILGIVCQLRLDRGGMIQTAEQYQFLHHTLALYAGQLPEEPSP

Protein Tat = Protein Tat (Human immunodeficiency virus type 1 group M subtype B (isolate HXB2)(HIV-1), UniProt P04608); assay type: functional;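 further: tat binding to TAR RNA read out by fluorescence polarization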
Large T antigen = Large T antigen (Simian virus 40, UniProt P03070); assay type: functional, Betapolyomavirus macacae;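 further: Confirmatory-stage PubChem screen for compounds that inhibit SV40 T antigen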
[5] = Luminescence Cell-Based Dose Response HTS to Identify Inhibitors of 5'UTR Stem-Loop Driven Prion Protein mRNA Translation in H4 Neuroglioblastoma Cells. [Related pubchem assays: 1827 (Project Summary), 1813 (Primary HTS)]; assay type: functional
[6] = inhibitors of firefly luciferase expression or activity, dose response, H4 neuroglioma cells, luminescence (AID 1990); assay type: functional, cell-based
Vero = test: host cell cytotoxicity of antiviral hits, dose response, cytotoxicity control for West Nile virus antiviral project, secondary assay (AID 1650); assay type: functional; conditions: Chlorocebus sabaeus
[7] = inhibitors of SNCA 5'UTR-driven reporter translation, confirmation, H4 neuroglioma cells, luminescence (AID 1988); assay type: functional, cell-based
[8] = Vero cell cytotoxicity, dose response, cytotoxicity control for Vif-APOBEC3G degradation inhibitor project, Vero cells (AID 1117358); assay type: functional; conditions: Human immunodeficiency virus 1, Vero
Cytochrome P450 2C9 = Cytochrome P450 2C9 (Homo sapiens, UniProt P11712)
[9] = target: Photoreceptor-specific nuclear receptor (Homo sapiens, UniProt Q9Y5X4); test: NR2E3 inverse agonists, dose response, biochemical, TR-FRET (AID 463256); assay type: functional
HEK293 [10] = test: cells; conditions: Homo sapiens
Cytochrome P450 2C19 = Cytochrome P450 2C19 (Homo sapiens, UniProt P33261); test: Cytochrome panel assay with activity outcomes. Panel member name: p450-cyp2c19 Compounds with AC50 equal or less than 10 uM are considered active; assay type: functional; conditions: read-out: AC50
Cytochrome P450 3A4 = Cytochrome P450 3A4 (Homo sapiens, UniProt P08684);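 further: CYP3A4 tested as one member of a cytochrome P450 panel screen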
HEK293 [11] = test: cells; conditions: Homo sapiens; remark: listed apart in the source
[12] = target: Peroxisome proliferator-activated receptor gamma/Nuclear receptor corepressor 2 (Homo sapiens, UniProt P37231+Q9Y618); test: Counterscreen for NR2E3 inverse agonists: TR-FRET-based biochemical high throughput dose response assay to identify inverse agonists of the interaction between peroxisome proliferator-activated receptor gamma (PPARg) and nuclear receptor co-repressor 2 (NCOR2).; assay type: functional
[13] = target: T5, Zinc finger protein mex-5 (Caenorhabditis elegans, UniProt Q9XUB2); test: MEX-5/TCR-2 RNA interaction inhibitors, dose response, biochemical, C. elegans, fluorescence polarization (AID 1960)
T5 sequence (Q9XUB2 whole entry): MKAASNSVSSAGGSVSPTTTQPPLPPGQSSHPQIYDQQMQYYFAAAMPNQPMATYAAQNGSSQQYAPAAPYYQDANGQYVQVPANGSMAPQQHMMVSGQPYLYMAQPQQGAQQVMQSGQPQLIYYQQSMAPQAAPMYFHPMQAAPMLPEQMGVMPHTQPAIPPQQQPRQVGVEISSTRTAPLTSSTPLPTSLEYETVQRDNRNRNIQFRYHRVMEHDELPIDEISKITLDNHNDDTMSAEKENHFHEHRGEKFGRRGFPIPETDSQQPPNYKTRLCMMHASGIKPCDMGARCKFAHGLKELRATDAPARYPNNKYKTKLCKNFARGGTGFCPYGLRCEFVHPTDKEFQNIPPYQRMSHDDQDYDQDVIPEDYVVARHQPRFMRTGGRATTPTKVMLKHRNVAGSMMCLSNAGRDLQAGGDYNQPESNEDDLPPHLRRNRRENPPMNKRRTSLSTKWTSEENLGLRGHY

Ephrin type-A receptor 4 = Ephrin type-A receptor 4 (Mus musculus, UniProt Q03137); test: inhibitors of EphA4 binding to KYL peptide, primary screen, biochemical, colorimetric, mouse EphA4 (AID 689); assay type: functional
[14] = target: T6, RNA-binding protein pos-1 (Caenorhabditis elegans, UniProt G5EF15); test: inhibitors of POS-1/mex-3 RNA binding, dose response, biochemical, fluorescence polarization (AID 1964);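 further: purified POS-1 fused to maltose binding protein made in E. coli; potency of compounds blocking POS-1 binding to fluorescent RNA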
T6 sequence (G5EF15 whole entry): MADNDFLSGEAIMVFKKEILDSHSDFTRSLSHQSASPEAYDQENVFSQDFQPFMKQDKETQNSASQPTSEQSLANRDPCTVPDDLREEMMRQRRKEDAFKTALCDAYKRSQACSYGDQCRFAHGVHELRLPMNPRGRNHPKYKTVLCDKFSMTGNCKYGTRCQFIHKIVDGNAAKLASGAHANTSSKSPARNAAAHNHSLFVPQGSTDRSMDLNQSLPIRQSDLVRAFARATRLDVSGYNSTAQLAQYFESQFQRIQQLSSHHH

[15] = target: Voltage-dependent T-type calcium channel subunit alpha-1H (Homo sapiens, UniProt O95180); assay type: functional;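 further: channel activity triggered by adding a high calcium stimulation buffer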
[16] = target: Disintegrin and metalloproteinase domain-containing protein 17 (Homo sapiens, UniProt P78536); test: exosite inhibitors of ADAM17, dose response, biochemical (AID 743260)
[17] = ADAM10 protease inhibitors, dose response, selectivity assay for ADAM17 exosite inhibitor project, biochemical, FRET peptide substrate, recombinant human ADAM10 (AID 743259);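 further: ADAM10 enzyme cleaving a FRET peptide substrate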
[18] = P. falciparum Dd2 growth inhibitors, dose response, SYBR Green, cherry-picked samples (AID 1159567); assay type: functional, cell-based
[19] = HepG2 cell cytotoxicity, dose response, cytotoxicity control, cherry-picked samples (AID 1159577); assay type: functional, cell-based
[20] = Plasmodium falciparum Dd2 Sybr green parasite growth Measured in Cell-Based and Microorganism Combination System Using Plate Reader - 2153-01_Inhibitor_Dose_DryPowder_Activity_Set3.; assay type: functional
[21] = P. falciparum 3D7-ScDHODH growth inhibitors, dose response, SYBR Green, dry powder samples (AID 1159570); assay type: functional, cell-based;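 further: parasite growth measured after 72 hours of compound exposure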
[22] = P. falciparum ATP4 D1247Y mutant growth inhibitors, dose response, NITD609-resistant line, SYBR Green, dry powder (AID 1159571); assay type: functional, cell-based;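 further: parasites synchronized at ring stage by sorbitol before testing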
[23] = P. falciparum Dd2 growth inhibitors, dose response, SYBR Green, dry powder samples (AID 1159566); assay type: functional, cell-based;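 further: potency for growth inhibition with lower SYBR green DNA signal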
[24] = HepG2 cell cytotoxicity, dose response, cytotoxicity control, plate reader, dry powder samples (AID 1159569); assay type: functional, cell-based;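 further: inhibitor potency with signal falling toward the positive control level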
[25] = inhibitors of orthopox intermediate gene expression, dose response, cell-based, single fluorophore reporter, dry powder (AID 1117271); assay type: functional
[26] = A549 cell cytotoxicity, dose response, CellTiter-Glo luminescence, dry powder, set 17 (AID 1117284); assay type: functional, cell-based
[27] = Single fluorophore orthopox expression reporter, late gene expression Measured in Cell-Based and Microorganism Combination System Using Plate Reader - 2142-08_Inhibitor_Dose_DryPowder_Activity.; assay type: functional

Peroxisome proliferator-activated receptor gamma/Nuclear receptor corepressor 2, sequence (P37231 whole entry): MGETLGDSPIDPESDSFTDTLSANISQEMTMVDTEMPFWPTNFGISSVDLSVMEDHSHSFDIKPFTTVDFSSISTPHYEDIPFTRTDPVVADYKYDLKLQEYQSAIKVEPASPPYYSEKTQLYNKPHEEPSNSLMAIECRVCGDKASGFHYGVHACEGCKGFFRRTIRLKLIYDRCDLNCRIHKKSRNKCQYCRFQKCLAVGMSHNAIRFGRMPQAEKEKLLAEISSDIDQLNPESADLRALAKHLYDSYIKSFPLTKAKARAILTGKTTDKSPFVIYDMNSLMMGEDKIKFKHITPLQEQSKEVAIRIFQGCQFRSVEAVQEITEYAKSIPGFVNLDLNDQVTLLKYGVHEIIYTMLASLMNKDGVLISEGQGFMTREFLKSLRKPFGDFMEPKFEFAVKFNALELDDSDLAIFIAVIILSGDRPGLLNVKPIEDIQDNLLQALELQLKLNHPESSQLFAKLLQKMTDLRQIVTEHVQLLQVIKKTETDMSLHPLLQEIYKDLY
Peroxisome proliferator-activated receptor gamma/Nuclear receptor corepressor 2, sequence (Q9Y618 whole entry): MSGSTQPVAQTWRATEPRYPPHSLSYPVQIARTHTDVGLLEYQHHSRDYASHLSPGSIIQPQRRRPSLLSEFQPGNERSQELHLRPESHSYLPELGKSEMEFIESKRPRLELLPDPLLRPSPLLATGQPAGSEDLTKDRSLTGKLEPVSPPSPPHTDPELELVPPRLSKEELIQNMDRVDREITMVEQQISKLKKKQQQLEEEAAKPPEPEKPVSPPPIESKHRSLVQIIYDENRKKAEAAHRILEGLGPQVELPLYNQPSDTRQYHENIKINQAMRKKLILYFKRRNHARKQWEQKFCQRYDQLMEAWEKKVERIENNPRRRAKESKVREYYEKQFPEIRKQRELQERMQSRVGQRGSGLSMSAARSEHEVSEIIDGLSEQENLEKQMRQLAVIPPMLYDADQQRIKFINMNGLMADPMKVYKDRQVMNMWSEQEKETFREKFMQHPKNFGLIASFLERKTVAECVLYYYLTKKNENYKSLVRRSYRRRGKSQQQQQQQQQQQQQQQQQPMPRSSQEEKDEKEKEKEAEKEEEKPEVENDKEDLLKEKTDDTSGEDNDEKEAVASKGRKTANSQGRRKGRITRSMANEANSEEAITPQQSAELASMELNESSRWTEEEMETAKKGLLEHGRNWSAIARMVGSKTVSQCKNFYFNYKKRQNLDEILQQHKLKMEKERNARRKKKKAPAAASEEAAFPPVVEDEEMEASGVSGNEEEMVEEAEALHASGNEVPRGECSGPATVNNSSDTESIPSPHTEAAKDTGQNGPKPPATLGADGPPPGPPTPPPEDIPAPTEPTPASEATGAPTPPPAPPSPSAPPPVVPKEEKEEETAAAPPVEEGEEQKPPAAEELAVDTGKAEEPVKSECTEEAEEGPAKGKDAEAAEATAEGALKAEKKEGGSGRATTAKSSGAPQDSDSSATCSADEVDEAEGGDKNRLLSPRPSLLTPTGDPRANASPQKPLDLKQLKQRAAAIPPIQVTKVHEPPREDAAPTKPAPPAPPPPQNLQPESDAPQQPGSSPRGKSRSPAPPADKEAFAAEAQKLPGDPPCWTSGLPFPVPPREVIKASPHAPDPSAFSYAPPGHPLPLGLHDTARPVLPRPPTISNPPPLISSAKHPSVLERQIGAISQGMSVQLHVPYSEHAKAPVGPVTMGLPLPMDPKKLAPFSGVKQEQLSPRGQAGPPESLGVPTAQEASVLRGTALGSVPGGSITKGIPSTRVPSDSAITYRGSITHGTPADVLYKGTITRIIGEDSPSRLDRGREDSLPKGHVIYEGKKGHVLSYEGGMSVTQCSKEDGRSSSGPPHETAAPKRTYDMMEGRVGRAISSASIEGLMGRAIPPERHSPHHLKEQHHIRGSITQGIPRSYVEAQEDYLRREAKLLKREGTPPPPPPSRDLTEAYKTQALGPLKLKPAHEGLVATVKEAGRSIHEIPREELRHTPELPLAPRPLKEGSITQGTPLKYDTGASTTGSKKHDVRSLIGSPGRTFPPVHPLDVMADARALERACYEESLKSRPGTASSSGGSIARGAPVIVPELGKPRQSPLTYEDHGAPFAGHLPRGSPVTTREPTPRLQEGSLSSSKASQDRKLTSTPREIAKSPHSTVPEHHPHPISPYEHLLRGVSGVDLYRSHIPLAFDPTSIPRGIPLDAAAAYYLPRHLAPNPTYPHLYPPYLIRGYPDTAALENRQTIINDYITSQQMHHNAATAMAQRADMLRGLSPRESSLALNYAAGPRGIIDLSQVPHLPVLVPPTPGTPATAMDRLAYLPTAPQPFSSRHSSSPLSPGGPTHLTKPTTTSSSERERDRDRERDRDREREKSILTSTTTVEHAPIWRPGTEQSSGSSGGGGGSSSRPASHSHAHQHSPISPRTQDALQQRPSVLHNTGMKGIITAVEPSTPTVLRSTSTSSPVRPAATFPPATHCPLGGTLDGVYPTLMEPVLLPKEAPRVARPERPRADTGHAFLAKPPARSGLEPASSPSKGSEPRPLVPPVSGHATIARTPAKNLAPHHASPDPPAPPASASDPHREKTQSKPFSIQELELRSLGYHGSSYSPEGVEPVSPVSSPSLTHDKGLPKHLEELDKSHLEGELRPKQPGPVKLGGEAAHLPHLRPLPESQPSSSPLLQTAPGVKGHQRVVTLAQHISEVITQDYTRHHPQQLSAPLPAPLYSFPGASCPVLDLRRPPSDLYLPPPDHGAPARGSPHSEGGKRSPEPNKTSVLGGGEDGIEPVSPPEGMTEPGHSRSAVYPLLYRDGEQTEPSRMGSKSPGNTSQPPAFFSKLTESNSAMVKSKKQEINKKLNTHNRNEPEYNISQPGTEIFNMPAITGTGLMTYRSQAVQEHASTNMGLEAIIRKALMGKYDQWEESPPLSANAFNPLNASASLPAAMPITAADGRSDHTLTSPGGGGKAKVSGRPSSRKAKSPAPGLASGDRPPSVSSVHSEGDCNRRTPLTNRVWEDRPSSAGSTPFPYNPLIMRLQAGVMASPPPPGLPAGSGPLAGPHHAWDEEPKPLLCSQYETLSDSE
Ephrin type-A receptor 4, sequence (Q03137 whole entry, the tested form may be a part): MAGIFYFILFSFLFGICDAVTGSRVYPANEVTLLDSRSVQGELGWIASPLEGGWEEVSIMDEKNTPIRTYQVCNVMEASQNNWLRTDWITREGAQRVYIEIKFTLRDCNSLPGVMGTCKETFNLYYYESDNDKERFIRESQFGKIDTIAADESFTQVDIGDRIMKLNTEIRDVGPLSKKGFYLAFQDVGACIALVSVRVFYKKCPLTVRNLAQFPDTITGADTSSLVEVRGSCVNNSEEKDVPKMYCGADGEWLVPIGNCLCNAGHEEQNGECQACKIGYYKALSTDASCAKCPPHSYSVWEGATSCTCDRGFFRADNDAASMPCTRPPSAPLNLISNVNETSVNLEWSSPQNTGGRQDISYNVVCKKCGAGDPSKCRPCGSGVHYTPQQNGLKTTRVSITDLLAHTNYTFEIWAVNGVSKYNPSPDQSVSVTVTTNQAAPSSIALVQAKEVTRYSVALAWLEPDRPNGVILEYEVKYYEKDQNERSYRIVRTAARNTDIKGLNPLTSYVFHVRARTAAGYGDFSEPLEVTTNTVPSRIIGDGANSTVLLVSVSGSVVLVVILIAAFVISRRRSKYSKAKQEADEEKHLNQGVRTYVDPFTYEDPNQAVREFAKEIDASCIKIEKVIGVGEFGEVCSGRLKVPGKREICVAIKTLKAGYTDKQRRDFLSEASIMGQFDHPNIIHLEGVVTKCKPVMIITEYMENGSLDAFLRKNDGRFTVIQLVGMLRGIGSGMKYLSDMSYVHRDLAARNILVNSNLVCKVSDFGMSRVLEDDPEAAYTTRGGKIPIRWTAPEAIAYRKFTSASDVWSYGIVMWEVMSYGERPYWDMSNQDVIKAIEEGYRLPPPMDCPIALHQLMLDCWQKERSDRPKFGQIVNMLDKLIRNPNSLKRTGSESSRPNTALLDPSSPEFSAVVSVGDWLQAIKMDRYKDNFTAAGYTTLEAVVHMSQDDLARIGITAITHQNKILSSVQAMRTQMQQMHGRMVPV
Disintegrin and metalloproteinase domain-containing protein 17, sequence (P78536 whole entry, the tested form may be a part): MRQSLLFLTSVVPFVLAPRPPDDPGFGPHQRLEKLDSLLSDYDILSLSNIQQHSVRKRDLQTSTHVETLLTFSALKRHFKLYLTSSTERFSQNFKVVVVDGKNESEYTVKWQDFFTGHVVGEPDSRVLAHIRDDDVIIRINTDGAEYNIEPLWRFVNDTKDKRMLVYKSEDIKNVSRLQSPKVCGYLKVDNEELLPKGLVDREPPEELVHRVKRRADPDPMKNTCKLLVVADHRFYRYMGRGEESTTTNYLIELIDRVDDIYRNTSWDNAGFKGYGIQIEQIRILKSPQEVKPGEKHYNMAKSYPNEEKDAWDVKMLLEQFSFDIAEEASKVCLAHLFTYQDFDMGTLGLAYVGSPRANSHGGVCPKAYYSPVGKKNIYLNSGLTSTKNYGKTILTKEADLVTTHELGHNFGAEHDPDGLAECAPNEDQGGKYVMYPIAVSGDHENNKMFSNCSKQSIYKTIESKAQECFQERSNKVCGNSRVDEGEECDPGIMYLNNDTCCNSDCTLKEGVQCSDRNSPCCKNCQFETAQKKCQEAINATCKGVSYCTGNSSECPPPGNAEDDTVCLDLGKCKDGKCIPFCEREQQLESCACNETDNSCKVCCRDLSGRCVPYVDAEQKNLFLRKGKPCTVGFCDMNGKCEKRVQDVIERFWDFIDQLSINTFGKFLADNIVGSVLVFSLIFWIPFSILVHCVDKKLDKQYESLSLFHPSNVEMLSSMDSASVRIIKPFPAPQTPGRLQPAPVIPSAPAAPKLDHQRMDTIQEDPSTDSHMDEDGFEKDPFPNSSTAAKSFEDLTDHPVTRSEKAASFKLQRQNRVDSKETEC
Protein Tat, sequence (P04608 whole entry): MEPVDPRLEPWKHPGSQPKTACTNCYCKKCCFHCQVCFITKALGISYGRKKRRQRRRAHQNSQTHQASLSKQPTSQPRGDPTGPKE

CCn1c(SCC(=O)O)nc2sc3c(c2c1=O)CCC3
IC50 [1]: 40.8 µM (active) | IC50 [2]: > 10 µM (not active) | IC50 (Bcl-2-like protein 10): 8.5 µM (active) | IC50 (Bcl-2-related protein A1): 14.5 µM (active) | IC50 [3]: 17.5 µM (active) | IC50 [4]: 1.29 µM (active)

O=C(CN1CCN(S(=O)(=O)c2ccc(F)cc2)CC1)c1ccc(O)c(O)c1
IC50 (Protein Tat): > 100 µM (active) | IC50 (Large T antigen): 6.55 µM (active)

O=C(Nc1ccc(O)c2c(=O)cc(-c3cccc(Cl)c3)oc12)c1cccc(Cl)c1
EC50 [5]: > 120 µM (not active) | EC50 [6]: > 120 µM (not active) | CC50 (Vero): 0.83 µM (active) | EC50 [7]: 10.2 µM (active)

N#Cc1nc(Cc2cccc3ccccc23)oc1NCc1ccc(F)cc1
CC50 [8]: > 40 µM (active)

CCOc1ccc(C(=O)Nc2ccc(NC(=O)c3ccco3)c(Cl)c2)cc1Br
AC50 (Cytochrome P450 2C9): 0.562 µM (inconclusive) | IC50 [9]: > 39.8 µM (not active) | EC50 (HEK293 [10]): > 59.7 µM (inactive) | AC50 (Cytochrome P450 2C19): 0.398 µM (inconclusive) | AC50 (Cytochrome P450 3A4): 22.4 µM (inconclusive) | EC50 (HEK293 [11]): > 59.7 µM (inactive) | IC50 [12]: > 39.8 µM (not active)

Cc1ccc2cc(/C=C3\N=C(c4ccccc4)OC3=O)c(N3CCOCC3)nc2c1
EC50 [13]: > 300 µM (inconclusive) | IC50 (Ephrin type-A receptor 4): 1.54 µM (active) | EC50 [14]: > 300 µM (not active) | EC50 [15]: 10.8 µM (active)

CCc1ccccc1NC(=O)CN(C)Cc1nc(N)nc(Nc2ccccc2C)n1
IC50 [4]: > 100 µM (not active)

O=C(CN1CCN(S(=O)(=O)c2ccc(Cl)s2)CC1)NCc1ccc(Cl)cc1
CC50 [8]: 15.1 µM (active)

CC(C)(C)OC(=O)N1CCCC(C(=O)Nc2cccc(C(=O)NCCCCc3ccccc3)c2)C1 (stereo unspecified)
IC50 [16]: > 69.5 µM (inactive) | IC50 [17]: > 69.5 µM (inactive)

C[C@@H]1CN([C@@H](C)CO)C(=O)c2cccc(NC(=O)Nc3cccc4ccccc34)c2O[C@@H]1CN(C)Cc1ccc(C(=O)Nc2ccccc2N)cc1
AC50 [18]: < 0.3 µM (active) | AC50 [19]: 12.1 µM (active)

C[C@H](CO)N1C[C@H](C)[C@H](CN(C)Cc2ccc(Oc3ccccc3)cc2)Oc2ccc(NC(=O)Nc3ccc(C(F)(F)F)cc3)cc2C1=O
AC50 [18]: 9.62 µM (active) | AC50 [19]: 7.87 µM (active)

C/C=C/c1ccc([C@H]2[C@@H](C#N)N(C(=O)NC3CCCC3)[C@@H]2CO)cc1
AC50 [20]: 0.719 µM (active) | AC50 [21]: 15.4 µM (active) | AC50 [18]: 1.02 µM (active) | AC50 [22]: 0.626 µM (active) | AC50 [23]: 0.4 µM (active)

CO[C@@H]1CN(C)C(=O)c2ccc(NC(=O)C3CC3)cc2OC[C@@H](C)N(Cc2cccc(F)c2)C[C@H]1C
AC50 [20]: 4.29 µM (active) | AC50 [21]: 6.86 µM (active) | AC50 [24]: > 100 µM (inactive) | AC50 [18]: 2.98 µM (active) | AC50 [22]: 3.64 µM (active) | AC50 [23]: 0.664 µM (active)

C[C@@H](O)C#Cc1ccc2c(c1)O[C@@H](CN(C)Cc1ccc(-c3ccc(Cl)cc3)cc1)[C@@H](C)CN([C@@H](C)CO)S2(=O)=O
AC50 [25]: 1.29 µM (active) | AC50 [26]: 33.4 µM (active) | AC50 [27]: 1.26 µM (active)
